In ChEMBL document CHEMBL1148180, “The isolation and structural elucidation of four novel triterpene lactones, pseudolarolides A, B, C, and D, from Pseudolarix kaempferi” (J Nat Prod, 1993):
≈ marks a conversion by molar mass, not a printed value. Calls of active or inactive are those of the source. No cut-off for these calls is given here.

Key:
KB = assay: Cytotoxicity against human KB cells; type: functional, cell-based
A549 = assay: Cytotoxicity against human A549 cells; type: functional, cell-based
Human alphaherpesvirus 2 = assay: Antiviral activity against HSV2 in african green monkey Vero cells assessed as inhibition of viral plaque formation; type: functional, organism-based
HCT-8 = assay: Cytotoxicity against human HCT8 cells; type: functional, cell-based
P388 = assay: Cytotoxicity against mouse P388 cells; type: functional, cell-based
TE-671 = assay: Cytotoxicity against human TE671 cells; type: functional, cell-based

## CC1=C[C@]2(C[C@@H](C)[C@H]3[C@@H](C[C@@]4(C)[C@@H]5CC[C@H]6C(C)(C)C(=O)CC[C@@]67C[C@@]57CC[C@]34C)O2)OC1=O [PSEUDOLAROLIDE B]
KB; Homo sapiens, KB, read-out: EC50
  EC50: 0.49 µg/mL (≈ 1.05 µM)
A549; Homo sapiens, A549, read-out: EC50
  EC50: 0.67 µg/mL (≈ 1.44 µM)
Human alphaherpesvirus 2
  Activity: Active
HCT-8; Homo sapiens, HCT-8, read-out: EC50
  EC50: 0.73 µg/mL (≈ 1.56 µM)
P388; Mus musculus, P388, read-out: EC50
  EC50: 0.79 µg/mL (≈ 1.69 µM)
TE-671
  EC50: Not Active

## C[C@@H]1C[C@]2(C[C@@H](C)[C@H]3[C@@H](C[C@@]4(C)[C@@H]5CC[C@H]6C(C)(C)C(=O)CC[C@@]67C[C@@]57CC[C@]34C)O2)OC1=O [PSEUDOLAROLIDE A]
KB; kb
  EC50: Not Active
A549; a549
  EC50: Not Active
Human alphaherpesvirus 2
  Activity: Active
HCT-8; hct-8
  EC50: Not Active
P388; p388
  EC50: Not Active
TE-671
  EC50: Not Active

## COC(=O)CC[C@]12C[C@]13CC[C@]1(C)[C@H]4[C@H](C)C[C@]5(C[C@@H](C)C(=O)O5)O[C@@H]4C[C@@]1(C)[C@@H]3CC[C@H]2C(C)(C)O [PSEUDOLAROLIDE C]
KB; kb
  EC50: Not Active
A549; a549
  EC50: Not Active
HCT-8; hct-8
  EC50: Not Active
P388; p388
  EC50: Not Active
TE-671
  EC50: Not Active

## C[C@@H]1C[C@]2(C[C@@H](C)[C@H]3[C@@H](C[C@@]4(C)[C@@H]5CC[C@H]6C(C)(C)OC(=O)CC[C@@]67C[C@@]57CC[C@]34C)O2)OC1=O [PSEUDOLAROLIDE D]
KB; kb
  EC50: Not Active
A549; a549
  EC50: Not Active
HCT-8; hct-8
  EC50: Not Active
P388; p388
  EC50: Not Active
TE-671
  EC50: Not Active
